Test results reported in ChEMBL document CHEMBL5316328, “Discovery of AXL Degraders with Improved Potencies in Triple-Negative Breast Cancer (TNBC) Cells” (J Med Chem, 2023).

test system: MDA-MB-453; test: Antiproliferative activity against human MDA-MB-453 cells assessed as inhibition of cell growth incubated for 72 hrs by CCK8 assay; assay type: functional, cell-based; conditions: MDA-MB-453, 72 h

| IC50 [µM] | SMILES |
| --- | --- |
| > 5 | CCc1ccc2c(c1)c(=O)c(C(=O)Nc1ccc(Oc3ncnc4cc(OCCCCCC(=O)Nc5ccc6c(c5)CN(C5CCC(=O)N(C)C5=O)C6=O)c(OC)cc34)c(F)c1)c(C)n2C (centres undefined) |

molecular target: Protein cereblon/Tyrosine-protein kinase receptor UFO (Homo sapiens, UniProt P30530+Q96SW2); test: PROTAC activity at CRBN/AXL in human MDA-MB-231 cells assessed as induction of AXL degradation incubated for 24 hrs by immunoblot analysis; assay type: cell-based; conditions: not given
Sequence (P30530 whole entry): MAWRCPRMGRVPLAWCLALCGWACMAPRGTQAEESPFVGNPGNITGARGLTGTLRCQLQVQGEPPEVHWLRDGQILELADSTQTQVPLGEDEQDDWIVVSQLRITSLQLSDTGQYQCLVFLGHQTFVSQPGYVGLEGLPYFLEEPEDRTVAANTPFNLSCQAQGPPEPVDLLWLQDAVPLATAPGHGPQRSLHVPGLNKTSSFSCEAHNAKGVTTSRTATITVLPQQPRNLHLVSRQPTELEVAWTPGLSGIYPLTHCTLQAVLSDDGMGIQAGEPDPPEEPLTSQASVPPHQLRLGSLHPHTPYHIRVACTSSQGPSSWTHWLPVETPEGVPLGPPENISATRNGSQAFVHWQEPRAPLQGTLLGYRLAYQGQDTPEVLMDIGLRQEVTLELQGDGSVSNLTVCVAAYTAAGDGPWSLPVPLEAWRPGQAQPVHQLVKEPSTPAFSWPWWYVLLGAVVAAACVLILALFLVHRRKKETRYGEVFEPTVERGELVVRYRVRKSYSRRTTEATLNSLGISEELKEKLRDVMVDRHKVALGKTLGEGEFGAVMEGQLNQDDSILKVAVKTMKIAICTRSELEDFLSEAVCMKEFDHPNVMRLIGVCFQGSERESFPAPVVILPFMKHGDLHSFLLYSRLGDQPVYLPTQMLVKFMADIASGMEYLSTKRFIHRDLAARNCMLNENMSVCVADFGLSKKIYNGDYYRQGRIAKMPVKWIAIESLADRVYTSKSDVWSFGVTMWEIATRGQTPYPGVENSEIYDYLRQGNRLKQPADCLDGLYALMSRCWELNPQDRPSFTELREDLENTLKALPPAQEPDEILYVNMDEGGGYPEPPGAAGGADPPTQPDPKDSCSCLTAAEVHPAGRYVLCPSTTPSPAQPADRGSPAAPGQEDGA
Sequence (Q96SW2 whole entry): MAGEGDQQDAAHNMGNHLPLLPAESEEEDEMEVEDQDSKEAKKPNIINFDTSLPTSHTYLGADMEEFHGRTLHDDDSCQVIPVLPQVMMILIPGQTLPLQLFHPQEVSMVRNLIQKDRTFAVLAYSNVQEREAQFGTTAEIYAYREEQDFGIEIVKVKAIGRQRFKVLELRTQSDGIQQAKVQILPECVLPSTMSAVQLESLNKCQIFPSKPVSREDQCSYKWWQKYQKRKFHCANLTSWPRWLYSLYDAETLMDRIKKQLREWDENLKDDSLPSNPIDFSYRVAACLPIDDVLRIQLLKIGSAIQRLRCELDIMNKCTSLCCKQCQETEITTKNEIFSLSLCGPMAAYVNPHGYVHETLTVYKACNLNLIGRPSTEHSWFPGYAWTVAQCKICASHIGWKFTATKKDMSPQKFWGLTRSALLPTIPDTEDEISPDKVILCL

| EC50 [µM] | SMILES |
| --- | --- |
| > 10 | CCc1ccc2c(c1)c(=O)c(C(=O)Nc1ccc(Oc3ncnc4cc(OCCCCC(=O)Nc5cccc6c5C(=O)N(C5CCC(=O)NC5=O)C6=O)c(OC)cc34)c(F)c1)c(C)n2C (centres undefined) |
| > 10 | CCc1ccc2c(c1)c(=O)c(C(=O)Nc1ccc(Oc3ncnc4cc(OCCCCCC(=O)Nc5cccc6c5C(=O)N(C5CCC(=O)NC5=O)C6)c(OC)cc34)c(F)c1)c(C)n2C (centres undefined) |
| > 10 | CCc1ccc2c(c1)c(=O)c(C(=O)Nc1ccc(Oc3ncnc4cc(OCCCCCC(=O)Nc5cccc6c5CN(C5CCC(=O)NC5=O)C6=O)c(OC)cc34)c(F)c1)c(C)n2C (centres undefined) |
| > 10 | CCc1ccc2c(c1)c(=O)c(C(=O)Nc1ccc(Oc3ncnc4cc(OCC(=O)Nc5ccc6c(c5)C(=O)N(C5CCC(=O)NC5=O)C6=O)c(OC)cc34)c(F)c1)c(C)n2C (centres undefined) |
| > 10 | CCc1ccc2c(c1)c(=O)c(C(=O)Nc1ccc(Oc3ncnc4cc(OCCCCCC(=O)Nc5ccc6c(c5)C(=O)N(C5CCC(=O)NC5=O)C6)c(OC)cc34)c(F)c1)c(C)n2C (centres undefined) |
| > 10 | CCc1ccc2c(c1)c(=O)c(C(=O)Nc1ccc(Oc3ncnc4cc(OCCCCCCCCCCCC(=O)Nc5cccc6c5C(=O)N(C5CCC(=O)NC5=O)C6=O)c(OC)cc34)c(F)c1)c(C)n2C (centres undefined) |
| > 10 | CCc1ccc2c(c1)c(=O)c(C(=O)Nc1ccc(Oc3ncnc4cc(OCCCCCCCCCCCC(=O)Nc5ccc6c(c5)C(=O)N(C5CCC(=O)NC5=O)C6=O)c(OC)cc34)c(F)c1)c(C)n2C (centres undefined) |
| > 10 | CCc1ccc2c(c1)c(=O)c(C(=O)Nc1ccc(Oc3ncnc4cc(OCC(=O)Nc5cccc6c5C(=O)N(C5CCC(=O)NC5=O)C6=O)c(OC)cc34)c(F)c1)c(C)n2C (centres undefined) |
| > 10 | CCc1ccc2c(c1)c(=O)c(C(=O)Nc1ccc(Oc3ncnc4cc(OCCCCCC(=O)Nc5cccc6c5C(=O)N(C5CCC(=O)NC5=O)C6=O)c(OC)cc34)c(F)c1)c(C)n2C (centres undefined) |
| 0.108 | CCc1ccc2c(c1)c(=O)c(C(=O)Nc1ccc(Oc3ncnc4cc(OCCCCCCCC(=O)Nc5ccc6c(c5)C(=O)N(C5CCC(=O)NC5=O)C6=O)c(OC)cc34)c(F)c1)c(C)n2C (centres undefined) |
| > 10 | CCc1ccc2c(c1)c(=O)c(C(=O)Nc1ccc(Oc3ncnc4cc(OCCCCCCCC(=O)Nc5cccc6c5C(=O)N(C5CCC(=O)NC5=O)C6=O)c(OC)cc34)c(F)c1)c(C)n2C (centres undefined) |
| > 10 | CCc1ccc2c(c1)c(=O)c(C(=O)Nc1ccc(Oc3ncnc4cc(OCCCCCCCCCC(=O)Nc5cccc6c5C(=O)N(C5CCC(=O)NC5=O)C6=O)c(OC)cc34)c(F)c1)c(C)n2C (centres undefined) |
| > 10 | CCc1ccc2c(c1)c(=O)c(C(=O)Nc1ccc(Oc3ncnc4cc(OCCCCCCCCCC(=O)Nc5ccc6c(c5)C(=O)N(C5CCC(=O)NC5=O)C6=O)c(OC)cc34)c(F)c1)c(C)n2C (centres undefined) |
| > 10 | CCc1ccc2c(c1)c(=O)c(C(=O)Nc1ccc(Oc3ncnc4cc(OCCCCC(=O)Nc5ccc6c(c5)C(=O)N(C5CCC(=O)NC5=O)C6=O)c(OC)cc34)c(F)c1)c(C)n2C (centres undefined) |
| 0.04 | CCc1ccc2c(c1)c(=O)c(C(=O)Nc1ccc(Oc3ncnc4cc(OCCCCCC(=O)Nc5ccc6c(c5)C(=O)N(C5CCC(=O)NC5=O)C6=O)c(OC)cc34)c(F)c1)c(C)n2C (centres undefined) |

molecular target: von Hippel-Lindau disease tumor suppressor/Tyrosine-protein kinase receptor UFO (Homo sapiens, UniProt P30530+P40337); test: PROTAC activity at VHL/AXL in human MDA-MB-231 cells assessed as induction of AXL degradation incubated for 24 hrs by immunoblot analysis; assay type: cell-based; conditions: not given
Sequence (P30530 whole entry): as the sequence (P30530 whole entry) above
Sequence (P40337 whole entry): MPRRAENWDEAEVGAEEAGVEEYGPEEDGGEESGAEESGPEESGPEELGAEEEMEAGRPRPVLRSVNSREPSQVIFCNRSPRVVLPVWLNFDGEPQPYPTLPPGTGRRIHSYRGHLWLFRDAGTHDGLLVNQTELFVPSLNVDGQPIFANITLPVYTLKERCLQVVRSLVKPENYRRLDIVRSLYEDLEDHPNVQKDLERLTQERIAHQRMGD

| EC50 [µM] | SMILES |
| --- | --- |
| > 10 | CCc1ccc2c(c1)c(=O)c(C(=O)Nc1ccc(Oc3ncnc4cc(OCCCCCCCC(=O)N[C@H](C(=O)N5C[C@H](O)C[C@H]5C(=O)NCc5ccc(-c6scnc6C)cc5)C(C)(C)C)c(OC)cc34)c(F)c1)c(C)n2C |
| > 10 | CCc1ccc2c(c1)c(=O)c(C(=O)Nc1ccc(Oc3ncnc4cc(OCC(=O)N[C@H](C(=O)N5C[C@H](O)C[C@H]5C(=O)NCc5ccc(-c6scnc6C)cc5)C(C)(C)C)c(OC)cc34)c(F)c1)c(C)n2C |
| > 10 | CCc1ccc2c(c1)c(=O)c(C(=O)Nc1ccc(Oc3ncnc4cc(OCCCC(=O)N[C@H](C(=O)N5C[C@H](O)C[C@H]5C(=O)NCc5ccc(-c6scnc6C)cc5)C(C)(C)C)c(OC)cc34)c(F)c1)c(C)n2C |
| > 10 | CCc1ccc2c(c1)c(=O)c(C(=O)Nc1ccc(Oc3ncnc4cc(OCCCCCCCCCC(=O)N[C@H](C(=O)N5C[C@H](O)C[C@H]5C(=O)NCc5ccc(-c6scnc6C)cc5)C(C)(C)C)c(OC)cc34)c(F)c1)c(C)n2C |
| > 10 | CCc1ccc2c(c1)c(=O)c(C(=O)Nc1ccc(Oc3ncnc4cc(OCCCCCC(=O)N[C@H](C(=O)N5C[C@H](O)C[C@H]5C(=O)NCc5ccc(-c6scnc6C)cc5)C(C)(C)C)c(OC)cc34)c(F)c1)c(C)n2C |
| > 10 | CCc1ccc2c(c1)c(=O)c(C(=O)Nc1ccc(Oc3ncnc4cc(OCCCCCCCCCCCC(=O)N[C@H](C(=O)N5C[C@H](O)C[C@H]5C(=O)NCc5ccc(-c6scnc6C)cc5)C(C)(C)C)c(OC)cc34)c(F)c1)c(C)n2C |

test system: MDA-MB-436; test: Antiproliferative activity against human MDA-MB-436 cells expressing AXL assessed as inhibition of cell growth incubated for 72 hrs by CCK8 assay; assay type: functional, cell-based; conditions: MDA-MB-436, 72 h

| IC50 [µM] | SMILES |
| --- | --- |
| > 5 | CCc1ccc2c(c1)c(=O)c(C(=O)Nc1ccc(Oc3ncnc4cc(OCCCCCC(=O)Nc5ccc6c(c5)CN(C5CCC(=O)N(C)C5=O)C6=O)c(OC)cc34)c(F)c1)c(C)n2C (centres undefined) |

test system: MDA-MB-231; test: Antiproliferative activity against human MDA-MB-231 cells expressing AXL assessed as inhibition of cell growth incubated for 72 hrs by CCK8 assay; assay type: functional, cell-based; conditions: MDA-MB-231, 72 h

| IC50 [µM] | SMILES |
| --- | --- |
| > 5 | CCc1ccc2c(c1)c(=O)c(C(=O)Nc1ccc(Oc3ncnc4cc(OCCCCCC(=O)Nc5ccc6c(c5)CN(C5CCC(=O)N(C)C5=O)C6=O)c(OC)cc34)c(F)c1)c(C)n2C (centres undefined) |
